Results on 40 molecules are retold here after ChEMBL document CHEMBL3046675, “Synthesis and Octopaminergic-Agonist Activity of 2-(Arylimino)oxazolidines and 2-(Substituted Benzylamino)-2-oxazolines” (J Pestic Sci, 1996).

The target in data set [1] is T1, Octopamine receptor (Periplaneta americana) (UniProt Q7YWB7).
T1 sequence (whole entry): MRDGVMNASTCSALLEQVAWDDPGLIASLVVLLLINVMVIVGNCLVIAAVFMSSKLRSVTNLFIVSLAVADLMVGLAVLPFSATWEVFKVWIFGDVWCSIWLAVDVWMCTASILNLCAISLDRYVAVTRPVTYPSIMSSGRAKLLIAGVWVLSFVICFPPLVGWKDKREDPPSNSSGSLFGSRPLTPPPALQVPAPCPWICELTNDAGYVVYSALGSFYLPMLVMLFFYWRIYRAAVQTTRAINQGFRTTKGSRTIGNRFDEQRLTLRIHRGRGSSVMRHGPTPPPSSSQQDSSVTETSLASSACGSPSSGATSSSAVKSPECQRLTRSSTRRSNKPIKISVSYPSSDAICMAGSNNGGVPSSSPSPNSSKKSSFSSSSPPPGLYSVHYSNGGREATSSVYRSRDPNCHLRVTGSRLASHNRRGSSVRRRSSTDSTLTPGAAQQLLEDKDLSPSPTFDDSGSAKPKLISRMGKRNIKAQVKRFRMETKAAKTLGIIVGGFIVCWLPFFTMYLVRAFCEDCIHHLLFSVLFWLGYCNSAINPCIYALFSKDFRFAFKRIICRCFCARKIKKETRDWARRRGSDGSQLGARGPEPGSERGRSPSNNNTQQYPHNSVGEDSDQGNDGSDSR
As to the kind of experiment: Agonist activity at Periplaneta americana (American cockroach) thoracic nerve cord octopaminergic receptor assessed as induction of adenylate cyclase-mediated cAMP production per mg protein at 100 uM by radioimmunoassay relative to octopamine.

Data set [2] has as its target T1, Octopamine receptor (Periplaneta americana). As to the kind of experiment: Agonist activity at Periplaneta americana (American cockroach) thoracic nerve cord octopaminergic receptor assessed as induction of adenylate cyclase-mediated cAMP production per mg protein at 100 uM by radioimmunoassay.
Data set [3] shares this target. Description: Agonist activity at Periplaneta americana (American cockroach) thoracic nerve cord octopaminergic receptor assessed as induction of adenylate cyclase-mediated cAMP production per mg protein by radioimmunoassay.
Data set [4] has the same target. Description: Agonist activity at Periplaneta americana (American cockroach) thoracic nerve cord octopaminergic receptor assessed as induction of adenylate cyclase-mediated cAMP production per mg protein at 10 uM by radioimmunoassay relative to octopamine.
Data set [5] shares this target. Description: Agonist activity at Periplaneta americana (American cockroach) thoracic nerve cord octopaminergic receptor assessed as induction of adenylate cyclase-mediated cAMP production per mg protein at 10 uM by radioimmunoassay.
Substrate in data set [6]: CCc1cccc(CC)c1/N=C1/NCCO1
Description: (§1) Agonist activity at Periplaneta americana (American cockroach) thoracic nerve cord octopaminergic receptor assessed as induction of adenylate cyclase-mediated cAMP production per mg protein by radioimmunoassay relative to octopamine.

Substrate in data set [7]: Clc1ccc(CNC2=NCCO2)cc1Cl
Described as §1.

Substrate in data set [8]: Clc1ccc(CNC2=NCCS2)cc1Cl
The data set is described as §1.

Take `COc1cc(/N=C2/NCCO2)cc(OC)c1OC`: the max activation in data set [1] is -9.4%. Moreover, the Activity in data set [2] was found to be 61.2 pmol/min.

For `Clc1cccc(/N=C2/NCCO2)c1Cl`, the max activation in data set [1] worked out at 2%. Besides, the Activity in data set [2] was 121 pmol/min.

Regarding `Fc1ccccc1CNC1=NCCO1`, the max activation in data set [1] came out at 14.2%. In data set [2], the Activity is 184 pmol/min.

`Fc1ccc(CNC2=NCCO2)cc1`: the max activation in data set [1] was 11.2%. Moreover, the Activity in data set [2] is 168 pmol/min.

As for `Cc1cc(Cl)ccc1/N=C1/NCCO1`, in data set [3], the Ka amounted to 0.18 µM. Also, in data set [1], the max activation amounted to 17.9%. For the same molecule, the Activity in data set [2] was 204 pmol/min.

Turning to `Clc1cccc(/N=C2/NCCO2)c1`, in data set [1], the max activation came to 0.2%. Besides, in data set [2], the Activity came to 111 pmol/min.

`Clc1ccc(CNC2=NCCO2)cc1Cl`: the Ka in data set [3] was 2.3 µM. In data set [1], the max activation came out at 13.5%. Besides, the Activity in data set [2] was 180 pmol/min.

In the case of `Cc1ccc(CNC2=NCCO2)cc1`, the max activation in data set [1] came out at 35.2%. Also, the Activity in data set [2] is 293 pmol/min.

Turning to `CCc1ccccc1/N=C1/NCCO1`, the max activation in data set [1] was -5%. In addition, the Activity in data set [2] turned out to be 84.1 pmol/min.

As for `Clc1ccc(/N=C2/NCCO2)c(Cl)c1Cl`, the max activation in data set [1] is 15.1%. Moreover, in data set [2], the Activity worked out at 189 pmol/min.

In the case of `FC(F)(F)c1ccccc1CNC1=NCCO1`, in data set [1], the max activation was determined as 5.1%. In addition, the Activity in data set [2] came to 137 pmol/min.

Consider `O=[N+]([O-])c1cccc(CNC2=NCCO2)c1`, for which the max activation in data set [1] turned out to be 18.4%. Besides, the Activity in data set [2] was 206 pmol/min.

`Fc1cccc(F)c1/N=C1/NCCO1`: in data set [1], the max activation is -0.3%. Further, the Activity in data set [2] is 109 pmol/min.

With `CCc1cccc(CC)c1NC1=NCCN1`, in data set [3], the Ka is 0.44 µM.

`Fc1cc(F)c(/N=C2/NCCO2)c(F)c1`: the max activation in data set [1] was 2.5%. In addition, the Activity in data set [2] stood at 123 pmol/min.

As for `Clc1ccc(CNC2=NCCO2)cc1`, the max activation in data set [1] came to 31.7%. The Activity in data set [2] was 275 pmol/min.

For `COc1ccccc1CNC1=NCCO1`, the max activation in data set [1] came to 6.9%. Also, the Activity in data set [2] worked out at 146 pmol/min.

Take `CCc1cccc(CC)c1/N=C1/NCCO1`: in data set [3], the Ka worked out at 0.44 µM. In addition, the max activation in data set [1] is 49%. Also, in data set [2], the Activity is 365 pmol/min.

Take `Cc1cccc(CNC2=NCCO2)c1`: the max activation in data set [1] came to 9.2%. Further, the Activity in data set [2] turned out to be 158 pmol/min.

Consider `Cc1cc(Br)ccc1/N=C1/NCCO1`, for which, in data set [3], the Ka was found to be 0.19 µM. In data set [1], the max activation stood at 19.9%. Besides, in data set [2], the Activity amounted to 214 pmol/min.

As for `Clc1ccccc1CNC1=NCCO1`, in data set [1], the max activation was 17.4%. Moreover, in data set [2], the Activity is 200 pmol/min.

`Clc1cc(Br)ccc1/N=C1/NCCO1`: in data set [1], the max activation was -8.4%. Moreover, the Activity in data set [2] is 66.4 pmol/min.

As for `CCc1ccc(/N=C2/NCCO2)cc1`, the Ka in data set [3] is 36 µM. In addition, the max activation in data set [1] is 11.5%. Also, in data set [2], the Activity turned out to be 170 pmol/min.

On to `FC(F)(F)c1cccc(CNC2=NCCO2)c1`, for which, in data set [1], the max activation stood at 17.2%. The Activity in data set [2] is 200 pmol/min.

Take `FC(F)(F)c1ccc(CNC2=NCCO2)cc1`: in data set [1], the max activation turned out to be 7%. In addition, in data set [2], the Activity was determined as 147 pmol/min.

`COc1cccc(CNC2=NCCO2)c1OC`: in data set [1], the max activation was found to be 8.9%. In addition, the Activity in data set [2] amounted to 157 pmol/min.

For `Fc1ccc(F)c(/N=C2/NCCO2)c1`, in data set [1], the max activation is -7.7%. In addition, the Activity in data set [2] was found to be 70.3 pmol/min.

For `COc1ccc(CNC2=NCCO2)c(OC)c1`, in data set [1], the max activation stood at 9.8%. Also, the Activity in data set [2] stood at 161 pmol/min.

For the molecule `Clc1ccc(CNC2=NCCO2)c(Cl)c1`, the max activation in data set [1] is 11.8%. Moreover, in data set [2], the Activity turned out to be 172 pmol/min.

On to `Clc1ccc(CNC2=NCCS2)cc1Cl`, for which, in data set [3], the Ka was found to be 0.4 µM.

With `NCC(O)c1ccc(O)cc1` (stereo not given), the Ka in data set [3] was 7.6 µM. In data set [2], the Activity amounted to 630 pmol/min.

In the case of `COc1cccc(CNC2=NCCO2)c1`, the max activation in data set [1] was -3.6%. In addition, the Activity in data set [2] turned out to be 91.5 pmol/min.

`Brc1ccccc1CNC1=NCCO1`: the max activation in data set [1] was determined as 10.4%. In addition, in data set [2], the Activity was found to be 164 pmol/min.

`FC(F)(F)c1ccc(C(F)(F)F)c(/N=C2/NCCO2)c1`: in data set [1], the max activation is -4.2%. The Activity in data set [2] is 88.3 pmol/min.

Turning to `Clc1cccc(CNC2=NCCO2)c1`, the figures for the Activity in data set [4] and in data set [5] were 27.2% and 252 pmol/min, respectively. The Ka in data set [3] came out at 0.16 µM.

With `COc1ccc(CNC2=NCCO2)cc1`, in data set [1], the max activation is 17%. In addition, in data set [2], the Activity was 199 pmol/min.

Turning to `Fc1ccc(F)c(CNC2=NCCO2)c1`, the max activation in data set [1] is 19.3%. Further, the Activity in data set [2] amounted to 211 pmol/min.

Turning to `Brc1cc(Br)c(/N=C2/NCCO2)c(Br)c1`, the max activation in data set [1] was -4.4%. Besides, the Activity in data set [2] amounted to 87.4 pmol/min.

Take `FC(F)(F)c1ccc(/N=C2/NCCO2)cc1`: the max activation in data set [1] is 6.6%. Also, in data set [2], the Activity is 145 pmol/min.

B1: Octopamine receptor (Periplaneta americana), Q7YWB7 (protein)
chain: T1 sequence (whole entry)
As for B1, the Vmax in data set [6] worked out at 58%; in data set [7] it was 29%; in data set [8], 53%.
